Assays:
rat [1] = conditions: Sub-acute repeat dose toxicity, Oral, Gavage/Intubation, dose end: 4 day, group: systemic
rat [2] = conditions: Sub-acute repeat dose toxicity, Oral, Gavage/Intubation, dose end: 4 day, group: systemic; remark: listed apart in the source
rat [3] = conditions: Sub-acute repeat dose toxicity, Oral, Gavage/Intubation, dose end: 4 day, group: systemic; remark: listed apart in the source
rat [4] = conditions: Sub-acute repeat dose toxicity, Oral, Gavage/Intubation, dose end: 4 day, group: systemic; remark: listed apart in the source
dog = conditions: Subchronic oral toxicity in nonrodent, beagle, Feed, dose end: 6 month, group: systemic, systemic / clinical chemistry / albumin-globulin ratio / albumin-globulin ratio + systemic / organ weight / liver / absolute + systemic / …
mouse = conditions: Prenatal developmental toxicity study; other; Oral; Gavage/Intubation; dose end: 18 GD; group: maternal; reproductive / reproductive performance / aborted / aborted + reproductive / reproductive performance / estrous cycle / corpora lutea
rat [5] = conditions: Subchronic oral toxicity in rodents, fischer, Feed, dose end: 13 week, group: systemic
rat [6] = conditions: Carcinogenicity; fischer; Oral; Feed; dose end: 24 month; group: systemic; systemic / clinical chemistry / [other] / [other] + systemic / in life observation / body weight / body weight + systemic / in life …
rat [7] = conditions: Sub-acute repeat dose toxicity, fischer, Oral, Feed, dose end: 28 day, group: systemic
rat [8] = conditions: Multigenerational reproductive toxicity study, sprague dawley, Oral, Gavage/Intubation, dose end: 1 generation
[9] = systemic / in life observation / body weight / body weight + systemic / in life observation / clinical signs / abnormal respiratory sounds…
[10] = systemic / organ weight / liver / absolute
[11] = systemic / in life observation / clinical signs / abnormal respiratory sounds + systemic / in life observation / clinical signs / fur (…
[12] = systemic / in life observation / body weight / body weight + systemic / organ weight / liver / absolute + systemic / in life observation / …
[13] = systemic / organ weight / liver / absolute + systemic / in life observation / clinical signs / salivation + systemic / pathology microscopic…
[14] = systemic / in life observation / body weight / body weight gain + systemic / pathology gross / stomach / thickened + systemic / pathology …
[15] = systemic / in life observation / food consumption / food consumption + systemic / pathology microscopic / stomach / hyperkeratosis + …
[16] = systemic / pathology microscopic / stomach / papilloma + systemic / in life observation / body weight / body weight + systemic / in life …
[17] = group: offspring, developmental / developmental landmark / vaginal opening / vaginal opening + systemic / clinical chemistry / cholesterol / cholesterol + …
[18] = group: offspring, systemic / organ weight / spleen / absolute
[19] = group: parental, systemic / organ weight / adrenal gland / absolute + systemic / organ weight / liver / absolute + systemic / organ weight / liver / relative…
[20] = group: parental, systemic / pathology gross / sperm measure / sperm morphology
[21] = group: reproductive, reproductive / reproductive performance / mating / mating + reproductive / reproductive performance / estrous cycle / length

Q: With `CNCc1ccc(S(C)(=O)=O)cc1Oc1ccc2c(c1)CCCC2` as the compound, how does the LOAEL (rat [1]; [9]) read?
A: > 500 mg/kg/day

Q: What about the NOAEL (rat [1]; [9]) of the same compound?
A: ≥ 500 mg/kg/day

Q: What about the LEL (rat [1]; [10]) of the same compound?
A: 30 mg/kg/day

Q: What about the NEL (rat [1]; [10]) of the same compound?
A: < 30 mg/kg/day

Q: And the LOAEL (rat [2]; [11])?
A: > 500 mg/kg/day

Q: What about the NEL (rat [2]; [11]) of the same compound?
A: 30 mg/kg/day

Q: And the NOAEL (rat [2]; [11])?
A: ≥ 500 mg/kg/day

Q: What about the LEL (rat [2]; systemic / in life observation / clinical signs / salivation) of the same compound?
A: 100 mg/kg/day

Q: And the LOAEL (rat [3]; [12])?
A: > 500 mg/kg/day

Q: What about the NOAEL (rat [3]; [12]) of the same compound?
A: ≥ 500 mg/kg/day

Q: What about the LEL (rat [3]; [10]) of the same compound?
A: 30 mg/kg/day

Q: What about the NEL (rat [3]; [10]) of the same compound?
A: < 30 mg/kg/day

Q: And the LEL (rat [4]; [10])?
A: 30 mg/kg/day

Q: And the NEL (rat [4]; [10])?
A: < 30 mg/kg/day

Q: What about the LOAEL (rat [4]; [13]) of the same compound?
A: > 100 mg/kg/day

Q: What about the NOAEL (rat [4]; [13]) of the same compound?
A: ≥ 100 mg/kg/day

Q: Which LEL (dog) does the source give for `COc1ccc(O)c(C(C)(C)C)c1` [Butylated hydroxyanisole] here?
A: 54 mg/kg/day

Q: What about the LOAEL (dog) of the same compound?
A: > 219 mg/kg/day

Q: And the NEL (dog)?
A: < 54 mg/kg/day

Q: What about the NOAEL (dog) of the same compound?
A: ≥ 219 mg/kg/day

Q: What about the LEL (mouse) of the same compound?
A: 500 mg/kg/day

Q: What about the LOAEL (mouse) of the same compound?
A: > 500 mg/kg/day

Q: What about the NEL (mouse) of the same compound?
A: < 500 mg/kg/day

Q: What about the NOAEL (mouse) of the same compound?
A: ≥ 500 mg/kg/day

Q: And the LEL (rat [5]; systemic / clinical chemistry / [other] / [other])?
A: 250 mg/kg/day

Q: And the NEL (rat [5]; systemic / clinical chemistry / [other] / [other] + systemic / in life observation / body weight / body weight gain + systemic / in life …)?
A: 125 mg/kg/day

Q: What about the LOAEL (rat [5]; [14]) of the same compound?
A: > 1000 mg/kg/day

Q: What about the NOAEL (rat [5]; [14]) of the same compound?
A: ≥ 1000 mg/kg/day

Q: And the LEL (rat [6])?
A: 1000 mg/kg/day

Q: And the LOAEL (rat [6])?
A: > 1000 mg/kg/day

Q: And the NEL (rat [6])?
A: < 1000 mg/kg/day

Q: What about the NOAEL (rat [6]) of the same compound?
A: ≥ 1000 mg/kg/day

Q: And the LEL (rat [7]; [15])?
A: 350 mg/kg/day

Q: What about the NEL (rat [7]; [15]) of the same compound?
A: < 350 mg/kg/day

Q: And the LOAEL (rat [7]; [16])?
A: > 1400 mg/kg/day

Q: What about the NOAEL (rat [7]; [16]) of the same compound?
A: ≥ 1400 mg/kg/day

Q: What about the LOAEL (rat [8]; [17]) of the same compound?
A: > 500 mg/kg/day

Q: And the NOAEL (rat [8]; [17])?
A: ≥ 500 mg/kg/day

Q: What about the LEL (rat [8]; [18]) of the same compound?
A: 10 mg/kg/day

Q: And the NEL (rat [8]; [18])?
A: < 10 mg/kg/day

Q: What about the LOAEL (rat [8]; [19]) of the same compound?
A: > 500 mg/kg/day

Q: And the NOAEL (rat [8]; [19])?
A: ≥ 500 mg/kg/day

Q: What about the LEL (rat [8]; [20]) of the same compound?
A: 10 mg/kg/day

Q: And the NEL (rat [8]; [20])?
A: < 10 mg/kg/day

Q: And the NEL (rat [8]; group: reproductive, reproductive / reproductive performance / mating / mating)?
A: 100 mg/kg/day

Q: And the LEL (rat [8]; [21])?
A: 500 mg/kg/day

Q: And the LOAEL (rat [8]; [21])?
A: > 500 mg/kg/day

Q: And the NOAEL (rat [8]; [21])?
A: ≥ 500 mg/kg/day

Source: EPA's ToxRefDB 2
